According to patent publication US11426375B2, “Substituted bisphenyl butanoic ester derivatives as NEP inhibitors” (NOVARTIS AG, priority 2019, dated 2022):
Where two headings read alike, the source gives them in different places.

Legend:
[1] = parameters: species or system Sprague Dawley rats; conditions: rat, in vivo, po, 10 mg/kg; for LBQ657 concentration-time profile / conversion to LBQ657: male, Sprague-Dawley
Procedure: A parallel study design consisting of four groups with three animals per group was conducted to examine the pharmacokinetic properties of the compounds of the present disclosure.
The drugs were administered to each group are as follows: compound I-1 (Group 1), compound I-2 (Group 2), compound I-3 (Group 3), and AHU377 (sacubitril) (Group 4). Each animal received a single 10 mg/kg (5 ml/kg) oral gavage dose of the specified study drug. The animal weights ranged from […] at the beginning of the study. Compound I-1, compound I-2, compound I-3, and AHU377 were formulated in 0.5% methylcellulose (400 cp) and 0.1% Tween 80 (w,v) in water was used as the vehicle. Water bath sonication was applied to facilitate dispersing for all four study drugs. Blood samples for pharmacokinetics analysis were collected at t=0.25, 0.5, 1, 2, 4, 8, and 24 hours (±5%) post dose administration. Plasma was prepared by collecting whole blood samples into tubes containing EDTA and NaF (final concentrations: ˜1 mg/mL (K2EDTA) and ˜2 mg/mL (NaF)). These tubes were kept in an ice bath prior to centrifugation at approximately 2,000 rcf for 10 minutes at approximately 5° C. To each resultant plasma sample, 50% phosphoric acid (v/v) was added to achieve a final concentration of 1% (v,v).
(§1) [^13C4]-LBQ657 was added as an internal standard to the pharmacokinetic (PK) samples and calibration standards prior to analysis by LC-MS/MS. The LC-MS system consisted of an API6500+ mass spectrometer coupled to an Agilent 1290 HPLC system equipped with a CTC Pal autosampler. The mass spectrometer was operated in the positive ion mode with a TESI ion source.

[2] = Aqueous solubility by visual observation; format: physicochemical; conditions: water; based on visual observation
Procedure: The solubility value was more than about 500 mg/ml based on visual observation.

[3] = parameters: species or system Cynomolgus Monkeys; conditions: cynomolgus monkey, in vivo, po, 10 mg/kg
Procedure: A cross-over study design consisting of two groups with two animals per group was conducted to examine the pharmacokinetic properties of compound I-1 of the present disclosure.
Compound I-1 and AHU377 were administered to each group as follows: compound I-1 on Day 0 followed by AHU377 on Day 2 (Group 1), AHU377 on Day 0 followed by compound I-1 on Day 2 (Group 2). Each animal received a single 10 mg/kg (5 ml/kg) oral gavage dose of the specified study drug on the specified day. The animals were 2.5 to 3.5 years of age and weighed between 3.1 and 4.3 kg at the beginning of the study. Both compounds were formulated in 0.5% methylcellulose (400 cp) and 0.1% Tween 80 (w,v) in water. Blood samples for pharmacokinetics analysis were collected at t=0, 0.25, 0.5, 1, 2, 4, 8, 24 and 48 hours post dose on Day 0 and Day 2. Plasma was prepared by collecting whole blood samples into tubes containing K2EDTA and NaF (final concentrations: ˜1 mg/mL (K2EDTA) and ˜2 mg/mL (NaF)). These tubes were kept in an ice bath prior to centrifugation at approximately 2,000 rcf for 10 minutes at approximately 5° C. To each resultant plasma sample (target volume 200 μL), 4 μL of 50% phosphoric acid (v/v) was added.
as §1, with “mode.” for “mode with a TESI ion source.”

[4] = format: physicochemical; conditions: for degradation in solution: 1 day
Procedure: It was stable at pH of 4.7 and pH of 6.8 up to 70° C. for 3 days.

[5] = Hygroscopicity, weight gain at 90% RH; format: physicochemical; conditions: after exposure to 90% RH
Description: The weight gain of compound I-1 after exposure to 90% RH (relatively humidity) was 0.34%, while that of AHU377 under the same conditions was 3.4%. […] On the other hand, AHU377 is a wax-like solid, which needs to be properly processed before further pharmaceutical processing such as weighing, dispensing and filling.

Row | Structure (SMILES) | LBQ657 concentration-time profile [1] | conversion to LBQ657 [1] | tolerability [1] | solubility [2] [mg/mL] | tolerability [3] | degradation in solution ([4]; pH 2) [%] | degradation in solution ([4]; pH 4.7) [%] | solution stability under acidic conditions ([4]; pH 2) | weight gain (hygroscopicity) [5] [%]
1 | CCOC(=O)[C@H](C)C[C@@H](Cc1ccc(-c2ccccc2)cc1)NC(=O)CCC(=O)N[C@@H](CCCCN)C(=O)O [Compound I-2, (4-(((2S,4R)-1-([1,1′-biphenyl]-4-yl)-5-ethoxy-4-methyl-5-oxopentan-2-yl)amino)-4-oxobutanoyl)-L-lysine] | flattened relative to AHU377 | nearly complete conversion to LBQ657 | very well tolerated | > 500 | – | – | – | – | –
2 | CCOC(=O)[C@H](C)C[C@@H](Cc1ccc(-c2ccccc2)cc1)NC(=O)CCC(=O)N[C@@H](CCCCN)C(=O)OC(C)(C)C [Compound I-3, Tert-butyl (4-(((2S,4R)-1-([1,1′-biphenyl]-4-yl)-5-ethoxy-4-methyl-5-oxopentan-2-yl)amino)-4-oxobutanoyl)-L-lysinate] | flattened relative to AHU377 | nearly complete conversion to LBQ657 | very well tolerated | – | – | – | – | – | –
3 | CCOC(=O)[C@H](C)C[C@@H](Cc1ccc(-c2ccccc2)cc1)NC(=O)CCC(=O)O [AHU377, 4-(((2S,4R)-1-([1,1′-biphenyl]-4-yl)-5-ethoxy-4-methyl-5-oxopentan-2-yl)amino)-4-oxobutanoic acid] | – | – | very well tolerated | – | well tolerated | 21.49 | 2.63 | unstable | 3.4
